Laboratory results: patent US12552767B2, “3-heteroaryl pyrrolidine and piperidine orexin receptor agonists” (Merck Sharp & Dohme LLC, priority 2020, dated 2026)

Molecular target: T1, human OX2R (Homo sapiens, UniProt O43614)
T1 construct: expressed in transfected cells; host or cells: CHO (Chinese hamster ovary) cells, grown under G418 selection
T1 sequence (O43614 1-444): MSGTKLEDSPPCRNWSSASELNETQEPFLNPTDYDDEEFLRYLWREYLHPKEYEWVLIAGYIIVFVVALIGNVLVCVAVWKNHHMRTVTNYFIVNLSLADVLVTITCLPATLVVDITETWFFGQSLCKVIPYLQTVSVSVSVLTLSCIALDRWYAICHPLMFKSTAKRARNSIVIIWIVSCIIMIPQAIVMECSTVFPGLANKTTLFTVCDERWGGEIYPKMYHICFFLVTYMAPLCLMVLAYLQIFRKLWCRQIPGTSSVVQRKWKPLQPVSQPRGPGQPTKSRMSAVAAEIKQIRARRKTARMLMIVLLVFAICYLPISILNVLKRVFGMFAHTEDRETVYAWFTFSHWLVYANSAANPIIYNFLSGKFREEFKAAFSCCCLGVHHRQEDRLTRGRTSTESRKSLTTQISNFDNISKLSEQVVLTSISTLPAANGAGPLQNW
Test: IP-One (IPOne) orexin receptor agonist assay in CHO cells expressing human OX2R
Format: cell-based
Conditions: for EC50: CHO cells expressing human OX2R, IP-One IP-1 detection, 2 hours incubation, four parameter logistic fit, read-out: OX2R Potency, EC50; for % of reference agonist maximal effect: human OX2R, percentage of sample raw value/mean max effect (reference compound at 1 uM with 100% activity)
In short: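 CHO cells stably expressing human OX2R were stimulated with compound (10-point ½-log dilutions) for 2 h at 37 °C. IP-1 accumulation was read by HTRF (IP-One, 665/620 nm). EC50 from a four-parameter fit; % effect relative to 1 μM reference agonist control.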

Structure (SMILES) | EC50 | % of reference agonist maximal effect
COCC(C)NC(=O)N1CCC[C@H](c2cc[nH]n2)[C@@H]1CO[C@H]1CC[C@@H](c2ccccc2)CC1 (relative stereo) [Example 126, (CIS)-N-(1-methoxypropan-2-yl)-2-((((CIS)-4-phenylcyclohexyl)oxy)methyl)-3-(1H-pyrazol-3-yl)piperidine-1-carboxamide] | 944 nM | 100%
CCNC(=O)N1CCCC(c2nc[nH]n2)C1CO[C@H]1CC[C@@H](C(C)C)CC1 (single isomer, unassigned) [Example 63, N-ethyl-2-((((CIS)-4-isopropylcyclohexyl)oxy)methyl)-3-(1H-1,2,4-triazol-3-yl)piperidine-1-carboxamide] | 334 nM | 100.2%
COC(=O)N1CCC[C@@H](c2csc(O)n2)[C@H]1CO[C@H]1CC[C@@H](c2ccccc2)CC1 (relative stereo) [Example 65] | 174 nM | 98.1%
COC(=O)N1CCC[C@@H](c2n[nH]cc2Cl)[C@H]1CO[C@H]1CC[C@@H](c2ccccc2)CC1 (single isomer, unassigned) [Example 46] | > 10000 nM | 0%
O=C(OC1CCC1)N1CCC[C@H](c2cc[nH]n2)[C@@H]1CO[C@H]1CC[C@@H](c2ccccc2)CC1 (relative stereo) [Example 112, cyclobutyl (CIS)-2-((((CIS)-4-phenylcyclohexyl)oxy)methyl)-3-(1H-pyrazol-3-yl)piperidine-1-carboxylate] | 6360 nM | 61.6%
COC(=O)N1CCC[C@H](c2ncn[nH]2)[C@@H]1CO[C@H]1CC[C@@H](c2ccccc2)CC1 (relative stereo) [Example 26, methyl (CIS)-2-((((CIS)-4-phenylcyclohexyl)oxy)methyl)-3-(1H-1,2,4-triazol-5-yl)piperidine-1-carboxylate] | 2430 nM | 83.6%
CC(C)[C@H]1CC[C@@H](OC[C@H]2[C@@H](c3cc[nH]n3)CCCN2C(=O)NCC2CCCCC2)CC1 (relative stereo) [Example 123, (CIS)-N-(cyclohexylmethyl)-2-((((CIS)-4-isopropylcyclohexyl)oxy)methyl)-3-(1H-pyrazol-3-yl)piperidine-1-carboxamide] | 6730 nM | 87.9%
COC(=O)N1CCCC(c2nc(O)sc2Cl)C1COC1CCC(c2ccccc2)CC1 (single isomer, unassigned) [Example 67, Methyl 3-(5-chloro-2-hydroxythiazol-4-yl)-2-(((4-phenylcyclohexyl)oxy)methyl)piperidine-1-carboxylate] | 227 nM | 99.9%
COC(=O)N1CCC[C@@H](c2n[nH]cc2C(C)C)[C@H]1CO[C@H]1CC[C@@H](c2ccccc2)CC1 (single isomer, unassigned) [Example 50] | > 10000 nM | 5.2%
COC(=O)N1CCC[C@H](c2n[nH]cc2C)[C@@H]1COC1CCN(c2ncc(F)cn2)CC1 (relative stereo) [Example 7, methyl (CIS)-2-(((1-(5-fluoropyrimidin-2-yl)piperidin-4-yl)oxy)methyl)-3-(4-methyl-1H-pyrazol-3-yl)piperidine-1-carboxylate] | 1500 nM | 95.7%
CCNC(=O)N1CCCC(c2[nH]ncc2C)C1COC1CCC(C(C)C)CC1 (single isomer, unassigned) [Example 59, N-ethyl-2-(((4-isopropylcyclohexyl)oxy)methyl)-3-(4-methyl-1H-pyrazol-5-yl)piperidine-1-carboxamide] | 593 nM | 98.3%
CC(C)[C@H]1CC[C@@H](OC[C@H]2[C@@H](c3cc[nH]n3)CCCN2C(=O)C2CC2)CC1 (relative stereo) [Example 75, cyclopropyl((CIS)-2-((((CIS)-4-isopropylcyclohexyl)oxy)methyl)-3-(1H-pyrazol-3-yl)piperidin-1-yl)methanone] | 3630 nM | 95.7%
COC(=O)N1CCC[C@@H](c2n[nH]cc2CO)[C@H]1CO[C@H]1CC[C@@H](c2ccccc2)CC1 (single isomer, unassigned) [Example 54] | > 10000 nM | 15.7%
COC(=O)N1CCC[C@H](c2n[nH]cc2I)[C@@H]1CO[C@H]1CC[C@@H](c2ccccc2)CC1 (relative stereo) [Example 42, Methyl cis-3-(4-iodo-1H-pyrazol-3-yl)-2-((((CIS)-4-phenylcyclohexyl)oxy)methyl)piperidine-1-carboxylate] | 41.2 nM | 100.8%
CC#CCCOC(=O)N1CCC[C@H](c2cc[nH]n2)[C@@H]1CO[C@H]1CC[C@@H](c2ccccc2)CC1 (relative stereo) [Example 106, pent-3-yn-1-yl (CIS)-2-((((CIS)-4-phenylcyclohexyl)oxy)methyl)-3-(1H-pyrazol-3-yl)piperidine-1-carboxylate] | 5080 nM | 71.4%
CC1(C)C[C@H]1C(=O)N1CCC[C@H](c2cc[nH]n2)[C@@H]1COC1CCC(c2ccccc2)CC1 (relative stereo) [Example 91, ((R)-2,2-dimethylcyclopropyl)((CIS)-2-((((CIS)-4-phenylcyclohexyl)oxy)methyl)-3-(1H-pyrazol-3-yl)piperidin-1-yl)methanone] | 6700 nM | 81%
COC(=O)N1[C@H](C)CC(c2[nH]ncc2C)[C@@H]1CO[C@H]1CC[C@@H](c2ccccc2)CC1 (stereo partly drawn) [Example 36, Methyl (2R,5R)-5-methyl-3-(4-methyl-1H-pyrazol-5-yl)-2-((((CIS)-4-phenylcyclohexyl)oxy)methyl)pyrrolidine-1-carboxylate] | 1030 nM | 96.3%
O=C(OCCF)N1CCC[C@H](c2cc[nH]n2)[C@@H]1CO[C@H]1CC[C@@H](c2ccccc2)CC1 (relative stereo) [Example 111, 2-fluoroethyl (CIS)-2-((((CIS)-4-phenylcyclohexyl)oxy)methyl)-3-(1H-pyrazol-3-yl)piperidine-1-carboxylate] | 6290 nM | 78.4%
CC#CCOC(=O)N1CCC[C@H](c2cc[nH]n2)[C@@H]1CO[C@H]1CC[C@@H](c2ccccc2)CC1 (relative stereo) [Example 103, but-2-yn-1-yl (CIS)-2-((((CIS)-4-phenylcyclohexyl)oxy)methyl)-3-(1H-pyrazol-3-yl)piperidine-1-carboxylate] | 3610 nM | 73.6%
COC(=O)N1CCC[C@H](c2n[nH]cc2C)[C@@H]1COC1CCN(c2ccccc2)CC1 (relative stereo) [Example 8, Methyl (CIS)-3-(4-methyl-1H-pyrazol-3-yl)-2-(((1-phenylpiperidin-4-yl)oxy)methyl)piperidine-1-carboxylate] | 5840 nM | 80.9%
COC(=O)N1CCC[C@H](c2n[nH]cc2C)[C@@H]1COC1CC=C(c2cccc(F)c2)CC1 (stereo partly drawn) [Example 13, methyl (CIS)-2-((((S)-3′-fluoro-2,3,4,5-tetrahydro-[1,1′-biphenyl]-4-yl)oxy)methyl)-3-(4-methyl-1H-pyrazol-3-yl)piperidine-1-carboxylate] | 4750 nM | 84.6%
O=C(OCCF)N1CCCC(c2ccn[nH]2)C1CO[C@H]1CC[C@@H](c2c(F)ccc(F)c2F)CC1 (relative stereo) [Example 30, 2-Fluoroethyl 3-(1H-pyrazol-5-yl)-2-((((CIS)-4-(2,3,6-trifluorophenyl)cyclohexyl)oxy)methyl)-piperidine-1-carboxylate] | 2920 nM | 87.6%
CCNC(=O)N1CCC[C@H](c2cc[nH]n2)[C@@H]1CO[C@H]1CC[C@@H](c2ccccc2)CC1 (single isomer, unassigned) [Example 18, (CIS)-N-ethyl-2-((((CIS)-4-phenylcyclohexyl)oxy)methyl)-3-(1H-pyrazol-3-yl)piperidine-1-carboxamide] | 54.7 nM | 98.8%
Cc1c[nH]nc1[C@@H]1CCCN(C(=O)C2CC2)[C@@H]1CO[C@H]1CC[C@@H](c2cccc(F)c2)CC1 (relative stereo) [Example 14] | 65.5 nM | 99.9%
CC(C)[C@H]1CC[C@@H](OC[C@H]2[C@@H](c3cc[nH]n3)CCCN2C(=O)C2CCC2)CC1 (relative stereo) [Example 79, cyclobutyl((CIS)-2-((((CIS)-4-isopropylcyclohexyl)oxy)methyl)-3-(1H-pyrazol-3-yl)piperidin-1-yl)methanone] | 5310 nM | 83.2%
COC(=O)N1CCC[C@H](c2nc(O)ccc2C)[C@@H]1CO[C@H]1CC[C@@H](c2ccccc2)CC1 (relative stereo) [Example 66, methyl (CIS)-3-(6-hydroxy-3-methylpyridin-2-yl)-2-((((CIS)-4-phenylcyclohexyl)oxy)methyl)piperidine-1-carboxylate] | 808 nM | 98.8%
